Assay results: PMC11189555, “Aryl amino acetamides prevent Plasmodium falciparum ring development via targeting the lipid-transfer protein PfSTART1” (Nature Communications, 2024)
Like-named read-outs stand apart in the source and are kept apart here.

Assays:
[1] = biological target: T1, recombinant PfSTART1(WT) (I149-V394) (Plasmodium falciparum, UniProt Q8I298); test: Isothermal titration calorimetry; type: binding; details: for Differential Power DP_Y / ΔH NDH_Y: PfSTART(WT), ITC replicate data
T1 construct: START domain alone (I149-V394 from PF3D7_0104200); 8xHis tag (N); TEV protease cleavage site (N); made in house; host or cells: Sf21 insect cells (baculovirus)
T1 sequence (Q8I298 entry or part of it): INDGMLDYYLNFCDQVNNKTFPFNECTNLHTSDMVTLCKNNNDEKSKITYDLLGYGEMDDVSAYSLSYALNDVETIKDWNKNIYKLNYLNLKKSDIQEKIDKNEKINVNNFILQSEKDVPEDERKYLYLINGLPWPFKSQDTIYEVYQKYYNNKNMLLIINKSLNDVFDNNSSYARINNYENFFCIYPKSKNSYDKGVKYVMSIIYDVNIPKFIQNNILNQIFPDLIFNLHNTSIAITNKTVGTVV
Text: Codon optimised (Spodoptera frugiperda, Sf) START domain alone (I149-V394 from PF3D7_0104200) was synthesised by Integrated DNA Technologies and cloned into a modified baculovirus transfer vector (pAcGP67-A) with a N-terminal GP67-signal sequence, 8xHis tag, and TEV protease cleavage site. Recombinant baculovirus was generated via the flashBACTM Baculovirus Expression System using Sf21 cells (Life Technologies), amplified to reach a third passage viral stock, and 1.5% used to infect Sf21 for protein expression. After incubation for three days at 28 °C, media containing secreted protein was harvested by centrifugation and supplemented with 50 mM Tris pH 7.5, 20 mM MgCl2, 100 mM NaCl, and 10-20 mM imidazole. The supplemented protein sample was purified by nickel affinity chromatography (HisTrap Excel 5 mL, Cytiva), and eluted with 20 mM Tris pH 7.5, 500 mM NaCl, 300-500 mM imidazole. Eluted fractions were further purified using size-exclusion chromatography (Superdex S75 16/600 or Superdex 10/300, Cytiva) with the column pre-equilibrated with 20 mM HEPES pH 7.5, 150 mM NaCl, and peak-containing fractions concentrated and stored at -80 °C until required. If required, prior to ITC, a second size-exclusion chromatography step was performed to remove soluble aggregates.
ITC experiments were performed on a MicroCal PEAQ-ITC calorimeter at 25 °C, with a stirring speed of 750 rpm and a reference power of 5 μcal/sec. 500 μM M-833 series inhibitor solutions were diluted to 10 μM in 50 mM NaPO4^-3 (pH 7.4), 150 mM NaCl with a final DMSO concentration of 2% (v/v) (cell sample). PfSTART1 protein was dialysed extensively against 50 mM NaPO4^-3 (pH 7.4), 150 mM NaCl, before diluting to 90 μM in the same buffer with 2% (v/v) DMSO (syringe sample). The first injection was 0.4 μL over a 0.8 s duration, and the remaining 19 injections were 2 μL of 4 s duration, with 150 s injection spacing. Data were collected and analysed using the PEAQ-ITC software (MicroCal) and fit by a single site binding model. A fitted offset (constant control heat) was also applied to the integrated heat.

[2] = tested on: PopD-D7 M-833 resistant clone (PfSTART1 N309K); test: Growth inhibition assay (72 h, LDH activity); type: cell-based, Plasmodium falciparum; details: for inhibition at 0.0390625 µM / inhibition at 0.078125 µM / inhibition at 0.15625 µM / inhibition at 0.3125 µM / inhibition at 0.625 µM / inhibition at 1.25 µM / inhibition at 2.5 µM / inhibition at 5 µM / inhibition at 10 µM / EC50: Plasmodium falciparum; for (av-uRBC) / (DMSO-uRBC) x100: PopD-D7
Procedure: The drug was then removed, and parasites were allowed to recover. Another cycle of drug treatment (3 μM M-833) was then resumed. The resistant lines were cloned out by limiting dilution (diluting the culture into a 96-well plate to achieve an average of ~0.3 parasites per well), prior to growth inhibition assays and genomic DNA (gDNA) extraction (DNeasy Blood and Tissue kit (Qiagen)[18].
Parasite growth assays with inhibitory compounds were performed as per[11] and are fully described in the Supplementary Information. […]
Growth inhibition assays. Synchronised ring-stage parasites (0.3-0.6% parasitemia, 2% haematocrit) were grown for 72 h in a serial-dilution of the compound under […]
and compound 4. Note that M-833 was first purchased from MolPort (MolPort -002-267-916) then made in-house at WEHI: the differences observed in EC50s across experiments are attributed to the different batches of M -833. For some experiments, 0, 0.25 or 2.5 mM of glucosamine (GlcN) was also added. Experiments were set up in technical duplicates or triplicates. Following a freeze -thaw cycle, lactate dehydrogenase (LDH) activity was assessed as an indicator of parasite growt h 5. 30 μL of parasite culture was incubated for 30 min in the dark with 75 μL Malstat mixture (0.1 M Tris pH 9.0, 20 g/L lactic acid, pH 7.5, 0.2% Triton-X100, 0.5 g/L acetylpyridine adenine dinucleotide (APAD, Sigma), 200 μg/mL nitroblue tetrazolium (NBT; Sigma), 1 μg/mL phenozine ethosulfate (PES; Sigma)). Absorbance was then measured at 650 nm, transformed using the formula below, plotted against the logarithm of the concentrations, and a non-linear regression (log(inhibitor) vs. response, variable slope) was calculated using GraphPad Prism to assess the half-inhibitory […]
Growth inhibition % = (1 − average(sample)− average(uRBC)) ∗ 100 […]
The DMSO samples were also used to assess growth of parasite in the presence of 0.25 and 2.5 mM GlcN (normalised by DMSO in 0 mM GlcN). […]

[3] = M-833 0.0390625 uM, PopD-D7 replicate 1
[4] = M-833 0.0390625 uM, PopD-D7 replicate 3
[5] = M-833 0.078125 uM, PopD-D7 replicate 1
[6] = M-833 0.078125 uM, PopD-D7 replicate 3
[7] = M-833 0.15625 uM, PopD-D7 replicate 1
[8] = M-833 0.15625 uM, PopD-D7 replicate 3
[9] = M-833 0.3125 uM, PopD-D7 replicate 1
[10] = M-833 0.3125 uM, PopD-D7 replicate 3
[11] = M-833 0.625 uM, PopD-D7 replicate 1
[12] = M-833 0.625 uM, PopD-D7 replicate 3
[13] = M-833 1.25 uM, PopD-D7 replicate 1
[14] = M-833 1.25 uM, PopD-D7 replicate 3
[15] = M-833 2.5 uM, PopD-D7 replicate 1
[16] = M-833 2.5 uM, PopD-D7 replicate 3
[17] = M-833 5 uM, PopD-D7 replicate 1
[18] = M-833 5 uM, PopD-D7 replicate 3
[19] = M-833 10 uM, PopD-D7 replicate 1
[20] = M-833 10 uM, PopD-D7 replicate 3

Cc1cc(Cl)c(S(=O)(=O)N2CCCC2)cc1OCC(=O)NC1CCCCC1 [M-833]
Kd ([1]; ITC, 25 °C, 90 µM PfSTART1 titrated into 10 µM compound, n = 2, ± SD): 0.042 ± 0.012 µM
ΔH ([1]; ITC, 25 °C, n = 2, ± SD): -7.6 ± 0.2 kcal/mol
−TΔS ([1]; ITC, 25 °C, n = 2, ± SD): -2.5 ± 0.4 kcal/mol
Differential Power DP_Y ([1]; DP_X 0.083333): -0.001604
Differential Power DP_Y ([1]; DP_X 0.1): -0.001099
ΔH NDH_Y ([1]; NDH_X 0.104703): -8.4
ΔH NDH_Y ([1]; NDH_X 0.192876): -6.335
Normalised to DMSO [2, 3]: 102.734
Normalised to DMSO [2, 4]: 100.987
Normalised to DMSO [2, 5]: 102.828
Normalised to DMSO [2, 6]: 101.481
Normalised to DMSO [2, 7]: 103.677
Normalised to DMSO [2, 8]: 99.9013
Normalised to DMSO [2, 9]: 100.66
Normalised to DMSO [2, 10]: 100.592
Normalised to DMSO [2, 11]: 98.7744
Normalised to DMSO [2, 12]: 98.815
Normalised to DMSO [2, 13]: 99.0572
Normalised to DMSO [2, 14]: 95.26
Normalised to DMSO [2, 15]: 95.8517
Normalised to DMSO [2, 16]: 89.6313
Normalised to DMSO [2, 17]: 85.4808
Normalised to DMSO [2, 18]: 79.5589
Normalised to DMSO [2, 19]: 58.4224
Normalised to DMSO [2, 20]: 50.0329
inhibition at 0.0390625 µM [2, 3]: -2.73%
inhibition at 0.0390625 µM [2, 4]: -0.987%
inhibition at 0.078125 µM [2, 5]: -2.83%
inhibition at 0.078125 µM [2, 6]: -1.48%
inhibition at 0.15625 µM [2, 7]: -3.68%
inhibition at 0.15625 µM [2, 8]: 0.0987%
inhibition at 0.3125 µM [2, 9]: -0.66%
inhibition at 0.3125 µM [2, 10]: -0.592%
inhibition at 0.625 µM [2, 11]: 1.23%
inhibition at 0.625 µM [2, 12]: 1.18%
inhibition at 1.25 µM [2, 13]: 0.943%
inhibition at 1.25 µM [2, 14]: 4.74%
inhibition at 2.5 µM [2, 15]: 4.15%
inhibition at 2.5 µM [2, 16]: 10.4%
inhibition at 5 µM [2, 17]: 14.5%
inhibition at 5 µM [2, 18]: 20.4%
inhibition at 10 µM [2, 19]: 41.6%
inhibition at 10 µM [2, 20]: 50%
EC50 ([2]; read-out: EC50 (95% confidence interval)): 9.95 µM
EC50 ([2]; Supplementary Table 1, PopD-D7 (N309K), 72 h, read-out: EC50): 4.88 µM
(av-uRBC) / (DMSO-uRBC) x100 ([2]; conc. 3.04832 nM, Biological replicate 1 (2021-10-25)): 106.031
(av-uRBC) / (DMSO-uRBC) x100 ([2]; conc. 3.04832 nM, Biological replicate 2 (2021-11-03)): 107.379
(av-uRBC) / (DMSO-uRBC) x100 ([2]; conc. 3.04832 nM, Biological replicate 3 (2021-11-11)): 132.053
(av-uRBC) / (DMSO-uRBC) x100 ([2]; conc. 9.14495 nM, Biological replicate 1 (2021-10-25)): 108.232
(av-uRBC) / (DMSO-uRBC) x100 ([2]; conc. 9.14495 nM, Biological replicate 2 (2021-11-03)): 108.229
(av-uRBC) / (DMSO-uRBC) x100 ([2]; conc. 9.14495 nM, Biological replicate 3 (2021-11-11)): 134.103
(av-uRBC) / (DMSO-uRBC) x100 ([2]; conc. 27.4348 nM, Biological replicate 1 (2021-10-25)): 109.088
(av-uRBC) / (DMSO-uRBC) x100 ([2]; conc. 27.4348 nM, Biological replicate 2 (2021-11-03)): 108.743
(av-uRBC) / (DMSO-uRBC) x100 ([2]; conc. 27.4348 nM, Biological replicate 3 (2021-11-11)): 131.145
(av-uRBC) / (DMSO-uRBC) x100 ([2]; conc. 82.3045 nM, Biological replicate 1 (2021-10-25)): 105.921
(av-uRBC) / (DMSO-uRBC) x100 ([2]; conc. 82.3045 nM, Biological replicate 2 (2021-11-03)): 106.368
(av-uRBC) / (DMSO-uRBC) x100 ([2]; conc. 82.3045 nM, Biological replicate 3 (2021-11-11)): 120.919
(av-uRBC) / (DMSO-uRBC) x100 ([2]; conc. 246.914 nM, Biological replicate 1 (2021-10-25)): 104.521
(av-uRBC) / (DMSO-uRBC) x100 ([2]; conc. 246.914 nM, Biological replicate 2 (2021-11-03)): 107.825
(av-uRBC) / (DMSO-uRBC) x100 ([2]; conc. 246.914 nM, Biological replicate 3 (2021-11-11)): 115.806
(av-uRBC) / (DMSO-uRBC) x100 ([2]; conc. 740.741 nM, Biological replicate 1 (2021-10-25)): 96.6483
(av-uRBC) / (DMSO-uRBC) x100 ([2]; conc. 740.741 nM, Biological replicate 2 (2021-11-03)): 106.073
(av-uRBC) / (DMSO-uRBC) x100 ([2]; conc. 740.741 nM, Biological replicate 3 (2021-11-11)): 111.809
(av-uRBC) / (DMSO-uRBC) x100 ([2]; conc. 2222.22 nM, Biological replicate 1 (2021-10-25)): 83.9595
(av-uRBC) / (DMSO-uRBC) x100 ([2]; conc. 2222.22 nM, Biological replicate 2 (2021-11-03)): 95.9821
(av-uRBC) / (DMSO-uRBC) x100 ([2]; conc. 2222.22 nM, Biological replicate 3 (2021-11-11)): 68.0249
(av-uRBC) / (DMSO-uRBC) x100 ([2]; conc. 6666.67 nM, Biological replicate 1 (2021-10-25)): 42.8085
(av-uRBC) / (DMSO-uRBC) x100 ([2]; conc. 6666.67 nM, Biological replicate 2 (2021-11-03)): 58.8022
(av-uRBC) / (DMSO-uRBC) x100 ([2]; conc. 6666.67 nM, Biological replicate 3 (2021-11-11)): 17.0257
(av-uRBC) / (DMSO-uRBC) x100 ([2]; conc. 20000 nM, Biological replicate 1 (2021-10-25)): 9.309
(av-uRBC) / (DMSO-uRBC) x100 ([2]; conc. 20000 nM, Biological replicate 2 (2021-11-03)): 11.2449
(av-uRBC) / (DMSO-uRBC) x100 ([2]; conc. 20000 nM, Biological replicate 3 (2021-11-11)): 4.179
Normalised to DMSO ([2]; PopD-D7 replicate 1, M-833 0.0390625 uM): 0.8625
Normalised to DMSO ([2]; PopD-D7 replicate 1, M-833 0.078125 uM): -4.169
Normalised to DMSO ([2]; PopD-D7 replicate 1, M-833 0.15625 uM): -1.581
Normalised to DMSO ([2]; PopD-D7 replicate 1, M-833 0.3125 uM): -1.15
Normalised to DMSO ([2]; PopD-D7 replicate 1, M-833 0.625 uM): -0.1437
Normalised to DMSO ([2]; PopD-D7 replicate 1, M-833 1.25 uM): -3.594
Normalised to DMSO ([2]; PopD-D7 replicate 1, M-833 2.5 uM): 7.619
Normalised to DMSO ([2]; PopD-D7 replicate 1, M-833 5 uM): 28.7494
Fold change compared to 3D7 ([2]; Supplementary Table 1, EC50 on PopD-D7 vs 3D7): 31 fold
